# Key:
# [1] = tested on: STAT3 DNA binding activity; assay: STAT3 DNA binding activity (STAT3 Transcription Factor Kit); assay type: cell-based, human; conditions: MDA-MB-231 cells; 10 μM, 24 h
# Protocol: Cells were treated with the compounds or DMSO (control) for 24 h. The cell extract were analyzed for STAT3 binding activity using STAT3 Transcription Factor Kit.
# (§1) Cells were treated with FLLL31 (10 μM) or DSMO (control) for 24 h. The cell extracts were analyzed for STAT3 DNA binding activity using STAT3 and STAT1 Transcription Factor Kits.
# JAK2 kinase = JAK2 kinase (Homo sapiens, UniProt O60674); assay: JAK2 kinase assay (HTScan JAK2 kinase assay kit); conditions: at 10 μM
# Protocol: JAK2 kinase assay was performed using a HTScan JAK2 kinase assay kit.
# [2] = tested on: cells with persistent expression of p-STAT3; assay: Apoptosis (cleaved caspase-3 immunoblot) in cancer cells; assay type: cell-based, human; conditions: 24 h
# Excerpt: (§2) The cell extract were processed for immunoblotting using specific antibodies. GAPDH was used as loading control.
# (§3) The cell extracts were processed for immunoblotting using specific antibodies. GAPDH was used as loading control.
# (§4) GAPDH was used as loading control.
# as §3, §3
# [3] = tested on: ERK1/2, PKC-δ, mTOR, p70S6K, and AKT phosphorylation; assay: Phosphorylation of other kinases by immunoblot in breast cancer cells; assay type: cell-based, human; conditions: MDA-MB-231 and MDA-MB-468 cells, 24 h
# Excerpt: as §2, §3
# [4] = tested on: eight cancer cell lines with elevated levels of STAT3 phosphorylation; assay: Anti-proliferative activity in a panel of eight cancer cell lines; assay type: cell-based, human
# [5] = tested on: normal human pancreatic duct epithelial cells, normal human lung fibroblasts, normal human mammary epithelial cells; assay: Apoptosis (cleaved caspase-3 immunoblot) in normal human cells; conditions: HPDE, HMEC and normal human lung fibroblasts; 24 h
# Excerpt: as §3
# [6] = tested on: downstream targets of STAT3; assay: Expression of downstream targets of STAT3 by immunoblot; assay type: cell-based, human; conditions: both breast cancer cell lines (MDA-MB-231, MDA-MB-468)
# Excerpt: as §2, §3, §4, §3
# STAT3 phosphorylation = STAT3 phosphorylation by immunoblot in cancer cells with persistently activated STAT3; assay type: cell-based, human; conditions: 24 h
# Excerpt: as §2, §3, §4, §3
# [7] = tested on: STAT1 DNA binding activity; assay: STAT1 DNA binding activity (STAT1 Transcription Factor Kit); assay type: cell-based, human; conditions: MDA-MB-231 cells; 10 μM, 24 h
# Protocol: as §1
# [8] = tested on: STAT3 dependent luciferase activity; assay: STAT3-dependent transcriptional luciferase activity (pLucTKS3); assay type: cell-based, human; conditions: MDA-MB-231 cells stably transfected with pLucTKS3; 1-10 μmol/L, 24 hours
# Protocol: Cells were incubated with the compounds for 24 h and were then harvested for luciferase activity analysis.
# Expression of luciferase is thus contingent upon the phosphorylation and activation of STAT3.
# Chain of JAK2 kinase (O60674 whole entry): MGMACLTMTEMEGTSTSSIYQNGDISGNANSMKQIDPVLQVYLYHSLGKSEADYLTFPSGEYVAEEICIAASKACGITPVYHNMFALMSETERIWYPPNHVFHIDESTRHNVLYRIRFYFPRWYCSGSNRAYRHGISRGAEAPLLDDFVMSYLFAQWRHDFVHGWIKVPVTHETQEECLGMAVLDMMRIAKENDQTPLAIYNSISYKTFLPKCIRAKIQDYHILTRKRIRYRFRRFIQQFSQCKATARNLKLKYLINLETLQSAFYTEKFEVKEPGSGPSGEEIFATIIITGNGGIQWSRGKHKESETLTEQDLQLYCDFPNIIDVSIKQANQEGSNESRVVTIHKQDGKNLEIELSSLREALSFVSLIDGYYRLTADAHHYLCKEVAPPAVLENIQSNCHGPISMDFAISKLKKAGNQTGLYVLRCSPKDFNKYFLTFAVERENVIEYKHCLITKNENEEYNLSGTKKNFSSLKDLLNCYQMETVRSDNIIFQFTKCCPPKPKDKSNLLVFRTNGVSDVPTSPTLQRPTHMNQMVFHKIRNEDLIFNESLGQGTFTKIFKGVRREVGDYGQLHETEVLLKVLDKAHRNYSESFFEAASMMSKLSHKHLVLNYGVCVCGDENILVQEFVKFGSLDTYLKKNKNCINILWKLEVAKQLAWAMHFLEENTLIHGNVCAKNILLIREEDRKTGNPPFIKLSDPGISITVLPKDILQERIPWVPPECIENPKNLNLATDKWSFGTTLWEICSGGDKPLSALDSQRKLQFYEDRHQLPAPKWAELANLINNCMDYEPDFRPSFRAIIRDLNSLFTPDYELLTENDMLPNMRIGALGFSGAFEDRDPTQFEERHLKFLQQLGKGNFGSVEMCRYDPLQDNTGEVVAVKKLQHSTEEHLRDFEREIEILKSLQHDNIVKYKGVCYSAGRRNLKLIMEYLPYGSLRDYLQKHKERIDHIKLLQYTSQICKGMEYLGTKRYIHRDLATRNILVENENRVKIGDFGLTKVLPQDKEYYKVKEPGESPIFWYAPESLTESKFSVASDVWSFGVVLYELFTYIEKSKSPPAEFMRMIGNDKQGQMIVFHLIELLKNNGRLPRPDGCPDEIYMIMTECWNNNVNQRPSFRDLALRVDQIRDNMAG
structure (smiles),measurement,setting,value
"COc1cc(C=CC(=O)CC(=O)C=Cc2ccc(O)c(OC)c2)ccc1O [curcumin, 1,7-bis(4-hydroxy-3-methoxyphenyl)-1,6-heptadien-3,5-dione, reference compound]",inhibition of STAT3 DNA binding activity,[1],inhibit STAT3 DNA binding activity
same,JAK2 inhibition,JAK2 kinase,did not show any JAK2 inhibition
COc1ccc(/C=C/C(=O)C(C)(C)C(=O)/C=C/c2ccc(OC)c(OC)c2)cc1OC [FLLL31],inhibition of STAT3 DNA binding activity,[1],statistically significant inhibition
same,potency of STAT3 DNA binding inhibition relative to curcumin,[1],significantly more potent than curcumin
same,induction of apoptosis (cleavages of caspase-3),[2]; MDA-MB-231 and MDA-MB-468 breast cancer cells,induction of apoptosis
same,induction of apoptosis (cleaved caspase-3),"[2]; PANC-1, BXPC-3 and SK-BR-3 cells, 5 or 10 μM",induce apoptosis
same,"effects on ERK1/2, PKC-δ, mTOR, p70S6K, and AKT phosphorylation",[3],little effects
same,"IC50, anti-proliferative activity","[4]; SUM-159, ZR-75-1, BXPC-3, HPAC, PANC-1, SW1990, U373, U266",submicromolar
same,"anti-proliferative potency relative to WP1066, Stattic, S31-201, SD1029 and AG490",[4]; panel of eight cancer cell lines,more potent than the other inhibitors
same,induction of apoptosis in normal human cells,[5],no apoptosis induction
same,down-regulation of cyclin D1,[6],down-regulation of cyclin D1
same,inhibition of STAT3 phosphorylation,"STAT3 phosphorylation; MDA-MB-231 breast cancer cells, 2.5 and 5 μM",inhibited STAT3 phosphorylation
same,inhibition of STAT3 phosphorylation,"STAT3 phosphorylation; MDA-MB-468 breast cancer cells, 2.5, 5 and 10 μM",inhibited STAT3 phosphorylation
same,selectivity: STAT3 versus STAT1 DNA binding activity,[7],inhibit STAT3 but not STAT1 DNA binding activity
same,inhibition of STAT3 dependent luciferase activity,[8],dose-dependent inhibition
"C[C@H](NC(=O)/C(C#N)=C/c1cccc(Br)n1)c1ccccc1 [WP1066, reference compound]",induction of apoptosis,"[2]; U373 cells, 5 μM",induce apoptosis
same,inhibition of STAT3 phosphorylation,"STAT3 phosphorylation; U373 human glioblastoma cells, 5 μM",inhibit STAT3 phosphorylation

# From US20120053208A1 (THE OHIO STATE UNIVERSITY RESEARCH FOUNDATION, priority 2009, published 2012)
